Test results taken from ChEMBL document CHEMBL5465560, “Selectivity Literature for EUbOPEN Chemogenomic Library” (2024).
One block for each molecule: values may come before it.

How the values were obtained:
[1] = system: Receptor-type tyrosine-protein kinase FLT3 (Homo sapiens), P36888 [UNDEFINED MUTATION]; conditions: at 10 µM
[2] = target: Cyclin-dependent kinase 8 (Homo sapiens, UniProt P49336); assay: Selectivity interaction (ActivX KiNativ screen (kinase selectivity in THP-1 cell lysates)) EUB0000639a CDK8; format: subcellular; conditions: lysate
[3] = target: T1, Histone-arginine methyltransferase CARM1 (Homo sapiens) (UniProt Q86X55); conditions: U-266, at 3 µM
T1 sequence (whole entry): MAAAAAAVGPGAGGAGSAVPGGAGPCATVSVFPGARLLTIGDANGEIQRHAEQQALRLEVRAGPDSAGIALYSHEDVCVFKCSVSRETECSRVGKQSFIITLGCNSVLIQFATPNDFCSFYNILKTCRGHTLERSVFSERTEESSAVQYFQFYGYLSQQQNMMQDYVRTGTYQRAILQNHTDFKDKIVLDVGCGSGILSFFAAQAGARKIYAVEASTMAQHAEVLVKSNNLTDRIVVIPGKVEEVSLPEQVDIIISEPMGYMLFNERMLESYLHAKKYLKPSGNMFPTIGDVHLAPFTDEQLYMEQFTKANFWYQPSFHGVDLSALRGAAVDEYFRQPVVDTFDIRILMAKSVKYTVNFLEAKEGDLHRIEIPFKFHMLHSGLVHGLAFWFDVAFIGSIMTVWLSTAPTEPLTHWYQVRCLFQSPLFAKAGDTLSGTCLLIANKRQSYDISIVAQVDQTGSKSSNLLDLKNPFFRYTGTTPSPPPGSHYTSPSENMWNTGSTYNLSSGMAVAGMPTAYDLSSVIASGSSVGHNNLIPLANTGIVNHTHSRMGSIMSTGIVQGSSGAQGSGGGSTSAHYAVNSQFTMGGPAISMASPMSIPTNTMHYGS

[4] = target: T2, Serine/threonine-protein kinase NLK (Homo sapiens) (UniProt Q9UBE8); assay: Selectivity interaction (KinomeScan (DiscoverX)) EUB0000695a NLK; conditions: at 100 nM
T2 sequence (whole entry): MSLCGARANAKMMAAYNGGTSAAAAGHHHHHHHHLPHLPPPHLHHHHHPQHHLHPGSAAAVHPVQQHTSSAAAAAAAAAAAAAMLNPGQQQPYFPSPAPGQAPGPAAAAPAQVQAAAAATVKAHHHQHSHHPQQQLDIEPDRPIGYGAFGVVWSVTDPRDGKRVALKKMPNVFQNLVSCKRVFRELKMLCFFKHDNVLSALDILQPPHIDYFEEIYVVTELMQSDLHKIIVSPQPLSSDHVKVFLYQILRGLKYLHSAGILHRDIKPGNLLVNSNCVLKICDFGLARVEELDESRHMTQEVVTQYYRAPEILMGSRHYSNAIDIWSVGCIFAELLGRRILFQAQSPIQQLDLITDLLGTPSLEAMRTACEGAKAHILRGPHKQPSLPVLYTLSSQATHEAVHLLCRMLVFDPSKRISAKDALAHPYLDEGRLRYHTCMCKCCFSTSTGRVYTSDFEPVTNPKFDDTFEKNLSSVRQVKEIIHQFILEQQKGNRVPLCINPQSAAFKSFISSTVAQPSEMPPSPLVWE

[5] = target: Ephrin type-A receptor 2 (Homo sapiens) (UniProt P29317); conditions: at 10 µM
[6] = target: Serine/threonine-protein kinase PLK2 (Homo sapiens, UniProt Q9NYY3); assay: Selectivity interaction (KinomeScan (DiscoverX)) EUB0000092b PLK2; conditions: at 10 µM
[7] = target: T3, Myosin-IIIb (Homo sapiens) (UniProt Q8WXR4); assay: Selectivity interaction (KinomeScan (DiscoverX)) EUB0001619a MYO3B; conditions: at 1 µM
T3 sequence (whole entry): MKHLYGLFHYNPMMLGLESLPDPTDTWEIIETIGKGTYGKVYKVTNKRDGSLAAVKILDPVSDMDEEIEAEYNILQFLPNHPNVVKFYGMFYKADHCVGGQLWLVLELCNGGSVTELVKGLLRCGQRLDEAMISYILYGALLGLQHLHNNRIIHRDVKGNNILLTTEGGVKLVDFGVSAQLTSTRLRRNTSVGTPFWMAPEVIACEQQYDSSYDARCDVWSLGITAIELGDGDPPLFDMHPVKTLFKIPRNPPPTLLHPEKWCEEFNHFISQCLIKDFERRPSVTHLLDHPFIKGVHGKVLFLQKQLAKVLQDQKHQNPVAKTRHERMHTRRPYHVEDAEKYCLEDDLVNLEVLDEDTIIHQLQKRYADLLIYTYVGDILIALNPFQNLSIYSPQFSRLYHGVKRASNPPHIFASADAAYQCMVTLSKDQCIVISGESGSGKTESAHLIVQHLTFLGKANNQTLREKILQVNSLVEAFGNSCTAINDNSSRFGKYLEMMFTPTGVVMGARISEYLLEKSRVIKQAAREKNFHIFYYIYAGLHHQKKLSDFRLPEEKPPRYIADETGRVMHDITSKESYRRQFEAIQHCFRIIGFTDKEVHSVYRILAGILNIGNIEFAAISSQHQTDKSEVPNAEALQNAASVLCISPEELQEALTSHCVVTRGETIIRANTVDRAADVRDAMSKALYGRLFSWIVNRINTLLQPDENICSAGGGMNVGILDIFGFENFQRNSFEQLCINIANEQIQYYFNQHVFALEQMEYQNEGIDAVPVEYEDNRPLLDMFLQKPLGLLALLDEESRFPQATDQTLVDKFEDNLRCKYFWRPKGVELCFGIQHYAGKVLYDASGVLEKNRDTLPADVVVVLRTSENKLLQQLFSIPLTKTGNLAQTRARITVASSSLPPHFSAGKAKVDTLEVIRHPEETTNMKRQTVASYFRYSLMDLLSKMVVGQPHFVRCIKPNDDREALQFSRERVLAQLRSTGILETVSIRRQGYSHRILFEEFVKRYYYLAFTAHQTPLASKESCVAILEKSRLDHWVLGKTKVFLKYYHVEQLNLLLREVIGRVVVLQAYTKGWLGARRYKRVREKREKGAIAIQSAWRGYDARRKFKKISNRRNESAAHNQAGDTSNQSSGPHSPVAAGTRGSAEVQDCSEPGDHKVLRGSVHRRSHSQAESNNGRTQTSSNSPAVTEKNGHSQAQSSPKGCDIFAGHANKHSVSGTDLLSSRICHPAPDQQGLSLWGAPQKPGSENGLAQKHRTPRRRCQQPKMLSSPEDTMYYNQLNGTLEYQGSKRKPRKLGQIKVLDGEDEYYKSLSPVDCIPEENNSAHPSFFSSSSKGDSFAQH

[8] = target: Serine/threonine-protein kinase PAK 4 (Homo sapiens, UniProt O96013); assay: Selectivity interaction (KinomeScan (DiscoverX)) EUB0001619a PAK4; conditions: at 1 µM
[9] = target: Fibroblast growth factor receptor 1 (Homo sapiens, UniProt P11362); assay: Selectivity interaction (Kinase panel (DSF assay)) EUB0001558a FGFR1
Fibroblast growth factor receptor 1, sequence (P11362 22-822 limits assumed): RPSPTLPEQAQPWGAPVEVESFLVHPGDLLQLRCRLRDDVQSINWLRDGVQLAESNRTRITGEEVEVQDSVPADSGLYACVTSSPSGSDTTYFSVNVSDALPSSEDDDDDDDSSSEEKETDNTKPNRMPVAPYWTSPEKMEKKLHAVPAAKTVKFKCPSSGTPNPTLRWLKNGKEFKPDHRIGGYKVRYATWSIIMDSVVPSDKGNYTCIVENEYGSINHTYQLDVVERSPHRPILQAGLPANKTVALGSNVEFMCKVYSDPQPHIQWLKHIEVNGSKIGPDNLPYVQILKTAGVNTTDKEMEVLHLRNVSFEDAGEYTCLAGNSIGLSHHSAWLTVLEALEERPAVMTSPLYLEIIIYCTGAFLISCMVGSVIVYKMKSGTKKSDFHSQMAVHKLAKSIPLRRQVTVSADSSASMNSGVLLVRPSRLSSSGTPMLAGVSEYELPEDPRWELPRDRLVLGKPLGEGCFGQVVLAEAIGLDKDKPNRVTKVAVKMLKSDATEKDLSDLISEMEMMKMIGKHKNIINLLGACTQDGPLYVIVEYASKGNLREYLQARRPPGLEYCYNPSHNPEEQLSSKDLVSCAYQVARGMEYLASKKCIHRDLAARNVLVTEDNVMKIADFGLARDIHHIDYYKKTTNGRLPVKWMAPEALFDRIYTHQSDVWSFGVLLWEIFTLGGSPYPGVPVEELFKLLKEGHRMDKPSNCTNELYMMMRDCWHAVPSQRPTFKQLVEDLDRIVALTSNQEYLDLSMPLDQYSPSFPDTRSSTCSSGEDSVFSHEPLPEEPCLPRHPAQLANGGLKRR

Cyclin-dependent kinase 8, sequence (P49336 whole entry): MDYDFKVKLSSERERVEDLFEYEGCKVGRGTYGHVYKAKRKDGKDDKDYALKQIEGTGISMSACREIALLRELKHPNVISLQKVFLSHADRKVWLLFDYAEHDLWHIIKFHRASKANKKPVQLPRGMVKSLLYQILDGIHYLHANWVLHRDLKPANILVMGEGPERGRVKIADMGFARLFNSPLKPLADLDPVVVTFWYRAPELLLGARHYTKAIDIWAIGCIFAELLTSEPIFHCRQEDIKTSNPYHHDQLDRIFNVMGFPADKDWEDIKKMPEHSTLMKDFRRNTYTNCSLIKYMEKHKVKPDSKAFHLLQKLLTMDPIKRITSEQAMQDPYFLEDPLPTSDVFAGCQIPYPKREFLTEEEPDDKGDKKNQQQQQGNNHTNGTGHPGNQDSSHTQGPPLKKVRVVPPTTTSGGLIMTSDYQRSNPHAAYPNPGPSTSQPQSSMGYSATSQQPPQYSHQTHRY
Serine/threonine-protein kinase PLK2, sequence (Q9NYY3 whole entry, looked up): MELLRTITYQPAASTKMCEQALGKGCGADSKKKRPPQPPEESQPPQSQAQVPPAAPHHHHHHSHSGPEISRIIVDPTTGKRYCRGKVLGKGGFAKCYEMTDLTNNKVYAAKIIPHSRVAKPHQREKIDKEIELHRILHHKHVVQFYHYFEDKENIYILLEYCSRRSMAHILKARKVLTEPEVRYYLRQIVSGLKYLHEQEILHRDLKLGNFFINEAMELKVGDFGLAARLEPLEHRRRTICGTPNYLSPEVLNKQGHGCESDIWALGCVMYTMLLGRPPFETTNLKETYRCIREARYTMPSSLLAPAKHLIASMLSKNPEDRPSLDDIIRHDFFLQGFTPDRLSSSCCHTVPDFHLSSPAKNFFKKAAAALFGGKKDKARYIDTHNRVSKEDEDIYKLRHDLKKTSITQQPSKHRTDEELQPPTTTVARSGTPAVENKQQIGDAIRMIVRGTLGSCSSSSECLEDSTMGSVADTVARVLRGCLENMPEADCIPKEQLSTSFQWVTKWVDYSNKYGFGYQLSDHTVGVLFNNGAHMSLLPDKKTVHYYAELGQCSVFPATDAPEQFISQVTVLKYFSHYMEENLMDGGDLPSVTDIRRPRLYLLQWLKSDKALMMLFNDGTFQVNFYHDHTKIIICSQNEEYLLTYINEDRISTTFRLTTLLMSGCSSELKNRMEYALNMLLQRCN
Receptor-type tyrosine-protein kinase FLT3 (Homo sapiens), P36888 [UNDEFINED MUTATION], sequence (P36888 whole entry, looked up, change not shown): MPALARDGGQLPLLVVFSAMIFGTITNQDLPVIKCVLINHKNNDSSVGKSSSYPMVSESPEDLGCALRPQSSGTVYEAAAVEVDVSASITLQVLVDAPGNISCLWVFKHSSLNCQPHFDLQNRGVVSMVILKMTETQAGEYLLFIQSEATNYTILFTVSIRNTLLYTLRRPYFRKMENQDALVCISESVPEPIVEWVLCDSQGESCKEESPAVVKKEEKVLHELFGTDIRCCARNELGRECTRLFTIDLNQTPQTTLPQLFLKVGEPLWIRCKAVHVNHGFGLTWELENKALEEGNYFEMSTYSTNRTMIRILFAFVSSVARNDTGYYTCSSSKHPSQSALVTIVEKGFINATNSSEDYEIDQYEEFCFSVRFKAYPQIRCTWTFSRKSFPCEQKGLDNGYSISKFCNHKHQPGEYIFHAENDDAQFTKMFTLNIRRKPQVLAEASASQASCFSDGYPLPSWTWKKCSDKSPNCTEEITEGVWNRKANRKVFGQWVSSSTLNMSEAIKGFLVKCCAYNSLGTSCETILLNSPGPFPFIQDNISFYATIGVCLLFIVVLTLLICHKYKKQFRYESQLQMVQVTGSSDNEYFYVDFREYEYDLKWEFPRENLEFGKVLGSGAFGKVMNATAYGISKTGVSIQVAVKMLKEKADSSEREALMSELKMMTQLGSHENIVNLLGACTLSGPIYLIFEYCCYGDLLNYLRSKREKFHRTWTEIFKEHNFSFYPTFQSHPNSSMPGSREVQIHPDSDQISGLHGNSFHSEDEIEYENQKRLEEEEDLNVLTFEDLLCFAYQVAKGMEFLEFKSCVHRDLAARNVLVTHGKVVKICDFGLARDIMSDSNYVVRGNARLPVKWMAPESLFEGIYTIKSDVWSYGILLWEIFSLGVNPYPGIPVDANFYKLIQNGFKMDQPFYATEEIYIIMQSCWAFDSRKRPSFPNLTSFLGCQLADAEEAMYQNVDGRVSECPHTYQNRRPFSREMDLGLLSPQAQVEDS
Serine/threonine-protein kinase PAK 4, sequence (O96013 whole entry, looked up): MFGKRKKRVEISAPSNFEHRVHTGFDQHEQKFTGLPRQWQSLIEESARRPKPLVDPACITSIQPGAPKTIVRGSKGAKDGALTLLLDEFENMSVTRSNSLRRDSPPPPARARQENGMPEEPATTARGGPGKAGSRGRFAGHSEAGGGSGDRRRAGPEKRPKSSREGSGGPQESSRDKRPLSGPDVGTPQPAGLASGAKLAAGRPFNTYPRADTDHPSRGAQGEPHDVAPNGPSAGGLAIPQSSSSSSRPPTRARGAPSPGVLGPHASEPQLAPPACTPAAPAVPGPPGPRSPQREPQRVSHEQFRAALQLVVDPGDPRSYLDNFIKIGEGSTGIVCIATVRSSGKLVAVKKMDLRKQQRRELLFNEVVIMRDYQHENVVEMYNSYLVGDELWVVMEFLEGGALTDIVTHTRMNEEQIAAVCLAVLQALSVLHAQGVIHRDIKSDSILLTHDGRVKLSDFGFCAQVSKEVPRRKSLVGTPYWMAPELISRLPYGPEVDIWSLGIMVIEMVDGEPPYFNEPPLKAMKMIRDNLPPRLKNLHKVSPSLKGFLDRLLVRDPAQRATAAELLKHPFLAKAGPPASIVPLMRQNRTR
Ephrin type-A receptor 2 (Homo sapiens), sequence (P29317 whole entry): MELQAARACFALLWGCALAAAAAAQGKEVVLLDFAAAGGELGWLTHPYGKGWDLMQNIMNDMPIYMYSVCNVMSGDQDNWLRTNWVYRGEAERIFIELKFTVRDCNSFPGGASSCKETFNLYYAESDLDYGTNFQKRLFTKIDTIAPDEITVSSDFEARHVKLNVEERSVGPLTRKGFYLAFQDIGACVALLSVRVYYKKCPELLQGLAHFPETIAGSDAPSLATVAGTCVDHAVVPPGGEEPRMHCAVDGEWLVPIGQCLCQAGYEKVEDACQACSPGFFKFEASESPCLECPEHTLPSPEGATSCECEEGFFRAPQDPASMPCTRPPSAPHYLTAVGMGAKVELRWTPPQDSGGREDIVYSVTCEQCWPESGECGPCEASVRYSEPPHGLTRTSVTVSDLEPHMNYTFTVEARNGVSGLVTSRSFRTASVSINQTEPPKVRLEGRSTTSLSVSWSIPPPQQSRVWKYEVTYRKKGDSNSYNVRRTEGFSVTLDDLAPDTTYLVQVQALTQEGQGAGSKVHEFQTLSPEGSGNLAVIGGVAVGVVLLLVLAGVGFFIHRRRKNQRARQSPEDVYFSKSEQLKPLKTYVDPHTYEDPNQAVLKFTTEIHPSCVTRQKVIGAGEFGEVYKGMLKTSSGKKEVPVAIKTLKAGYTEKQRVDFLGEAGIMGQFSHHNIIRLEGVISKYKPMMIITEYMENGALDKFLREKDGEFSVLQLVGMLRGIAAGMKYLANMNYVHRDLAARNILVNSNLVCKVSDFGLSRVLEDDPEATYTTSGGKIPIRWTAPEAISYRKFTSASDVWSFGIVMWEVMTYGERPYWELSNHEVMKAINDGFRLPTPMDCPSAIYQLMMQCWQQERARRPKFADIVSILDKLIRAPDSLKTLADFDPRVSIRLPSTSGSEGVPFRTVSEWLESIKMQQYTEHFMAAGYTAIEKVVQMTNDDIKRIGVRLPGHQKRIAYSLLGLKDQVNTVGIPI

Compound: Cc1cc([C@@H](C)Nc2ccccc2C(=O)O)c2nc(N3CCOCC3)cc(=O)n2c1 [AZD-6482]
% of control [1]: 53%

% of inhibition ([2]; at 0.01 µM): 10.4% | % of inhibition ([2]; at 0.04 µM): -11.1% | % of inhibition ([2]; at 0.2 µM): 2.6% | % of inhibition ([2]; at 1 µM): 7.8% | % of inhibition ([2]; at 5 µM): 18.7%
Compound: CC[C@@H]1[C@H](F)C(=O)N[C@@H]1COc1nccc2cc(C(N)=O)c(OC)cc12 [ZIMLOVISERTIB]

% of growth rate [3]: -24.4%
Compound: CNCCN1CCC(c2cc(CN(C)C(=O)c3cccc(Oc4ccccc4)c3)ccn2)CC1

Compound: Cc1cc(F)c(C(=O)Nc2cccc(-c3nncn3C(C)C)n2)cc1-n1cnc(C2CC2)c1
% of control [4]: 96%

% of control [5]: 100%
Compound: CCN(CC)CCCCNc1ncc2cc(-c3cc(OC)cc(OC)c3)c(NC(=O)NC(C)(C)C)nc2n1

Compound: CCC(=O)N1CCN(c2ccc(-n3c(=O)ccc4cnc5ccc(-c6cnc7ccccc7c6)cc5c43)cc2C(F)(F)F)CC1
% of control [6]: 85%

Compound: N#Cc1cccc(-c2c[nH]c3ncnc(N4CCOCC4)c23)c1
% of control [7]: 100% | % of control [8]: 100%

Compound: CC(C)(O)[C@H](F)CN1Cc2cc(NC(=O)c3cnn4cccnc34)c(N3CCOCC3)cc2C1=O
dTM [9]: 1.1 K
